In the METLIN SMRT retention time set (Domingo-Almenara et al. 2019):

Assay: gradient 5% acetonitrile 3 min, to 50% in 2 min, to 85% in 15 min, held 3 min, 100 µL/min
Conditions: column: Zorbax Extend-C18 2.1 x 50 mm; eluents: water / acetonitrile, 0.1% formic acid
Method in brief: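 Pure standards were analyzed in mixtures of ~100 molecules using HPLC coupled to a quadrupole time-of-flight mass spectrometer, in both positive and negative ionization mode. Separation used a Zorbax Extend-C18 column (2.1 × 50 mm, 1.8 μm) at 100 μL/min, with water and acetonitrile each containing 0.1% formic acid. Dead and dwell volumes were 40 μL and 900 μL, and data were collected over 3 months. Retention time was read from computationally picked adduct peaks, each inspected manually.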

`Cc1cc2c(c(=O)n(-c3ccc(F)cc3)c(=O)n2CC(=O)Nc2ccccc2C(F)(F)F)n1C` gave an RP-LC retention time of 880 s.

Work on `CCCCNC(=O)CC1CCN(C(=O)c2[nH]c(C)c(C)c2C)CC1` yielded an RP-LC retention time of 764 s.

Molecule `Cc1c(-c2noc(-c3ccccc3)n2)nnn1-c1ccccc1` has an RP-LC retention time of 1060 s.

Molecule `O=C(Nc1cccc(-c2cn3cccnc3n2)c1)c1ccc(Br)cc1` has an RP-LC retention time of 734 s.

In the case of `Cn1cccc1C(=O)C(=O)N1CCN(C(c2ccccc2)c2ccccc2)CC1`, the RP-LC retention time is reported as 824 s.

`O=C(CNC(=O)Cc1ccccc1)NCC(=O)N1CCCc2ccccc21` showed an RP-LC retention time of 710 s.

`COCCCNC(=O)c1cc2c(n(-c3ccc(C(C)C)cc3)c1=O)CCCC2=O` showed an RP-LC retention time of 882 s.

In the case of `CC1CCN(Cc2nc(-c3ccc(N4CCCC(C)C4)nc3)no2)CC1` (centres undefined), the RP-LC retention time is reported as 695 s.

Molecule `O=C(Nc1ccc(-c2cn3cccnc3n2)cc1)c1cccc(Br)c1` has an RP-LC retention time of 702 s.

Work on `O=C(c1ccc(Br)o1)N1CCC(Cc2nnc(-c3ccccc3)o2)CC1` yielded an RP-LC retention time of 881 s.

Molecule `O=C(O)c1cccn2c(=O)c3cc(Cl)ccc3nc12` has an RP-LC retention time of 782 s.

With `O=C(Cn1cccc1-c1nc(-c2ccc3c(c2)OCO3)no1)Nc1ccc2c(c1)OCCO2` the RP-LC retention time was 963 s.

For `CSc1ccccc1NC(=O)c1ccc(COc2ccc(C)cc2)o1`, the RP-LC retention time was 1120 s.

In the case of `CCc1ccc(OCC(=O)N(Cc2ccc(N(C)C)cc2)C2CCS(=O)(=O)C2)cc1` (centres undefined), the RP-LC retention time is reported as 792 s.

For `Cc1ccc(NC(=O)NCC(c2cccnc2)c2cn(C)c3ccccc23)cc1Cl` (centres undefined), the RP-LC retention time was 773 s.

Molecule `CCOC(=O)c1ccc(Nc2c(-c3ccc(SC)cc3)nc3cnccn23)cc1` has an RP-LC retention time of 943 s.

For `CN(CC(=O)N1CCCCC1)S(=O)(=O)c1ccc2c(c1)CCCC(=O)N2`, the RP-LC retention time was 676 s.

With `COc1ccc(-c2ccc3nc(N4CCC(C(=O)NCCN(C)C)CC4)sc3n2)cc1` the RP-LC retention time was 665 s.

In the case of `COc1cccc(CNC(=O)Cn2ccnc2-c2ccnc(N3CCCC3)c2)c1`, the RP-LC retention time is reported as 577 s.

`Cc1cnc(C2CC2)n1CCNS(=O)(=O)c1ccccc1Cl` showed an RP-LC retention time of 613 s.

In the case of `O=C(C1CCN(c2nc3ccc(-c4ccc(F)cc4)nc3s2)CC1)N1CCOCC1`, the RP-LC retention time is reported as 864 s.

For `CCC(=O)NCc1nc2c(n1CC)CN(S(=O)(=O)c1ccccc1F)CC2`, the RP-LC retention time was 561 s.

Molecule `CC(=O)c1ccc2c3c(cccc13)C(=O)N(c1ccccc1)C2=O` has an RP-LC retention time of 811 s.

In the case of `CSc1ccc(CNC(=O)C2CCCN(C(=O)c3cc(C)cc(C)c3)C2)cc1` (centres undefined), the RP-LC retention time is reported as 921 s.

`O=C(CCc1nnc(C(=O)Nc2ccccc2)s1)NCCc1c[nH]c2ccccc12` gave an RP-LC retention time of 843 s.

Work on `Cn1cc(-c2nnc(SCC(=O)N3CCc4ccccc4C3)n2C)c(-c2ccccc2)n1` yielded an RP-LC retention time of 754 s.

Molecule `CCCn1cc(C(=O)NCc2ccccc2F)c(S(=O)(=O)N2CCC(C)CC2)n1` has an RP-LC retention time of 1090 s.

Work on `CC(C)c1nc(CNC(=O)c2ccc(Cl)cc2)no1` yielded an RP-LC retention time of 785 s.

Molecule `CN1C(=O)c2cccn2CC1CNS(=O)(=O)Cc1ccccc1` (centres undefined) has an RP-LC retention time of 678 s.

`COc1ccc(C2C(C(=O)Nc3ccccn3)c3cc(OC)c(OC)cc3C(=O)N2C)cc1OC` (centres undefined) showed an RP-LC retention time of 677 s.

`CCN(C(=O)c1cccc(OC)c1)c1nc(-c2ccccc2)cs1` gave an RP-LC retention time of 1270 s.

With `Cc1ccc(-c2nc3ncccn3c2Nc2c(C)cccc2C)cc1` the RP-LC retention time was 820 s.

Molecule `COCCn1cc(C(=O)NC2CCCC2)c2nn(-c3ccccc3)c(=O)c-2c1` has an RP-LC retention time of 843 s.

In the case of `Cc1cccc(NC(=O)Cn2nc3c(Oc4cc(C)cc(C)c4)nccn3c2=O)c1`, the RP-LC retention time is reported as 934 s.

`COC(=O)c1ccccc1NC(=O)Cn1c(=O)c(CCC(=O)NCC(C)C)nc2ccccc21` showed an RP-LC retention time of 878 s.

Molecule `CCCc1nc(-c2ccnc(N3CCOCC3)c2)no1` has an RP-LC retention time of 749 s.

Work on `Cn1c(=O)c2ccn(CC(=O)NCCCc3ccccc3)c2n(C)c1=O` yielded an RP-LC retention time of 699 s.

`Nc1nc(N2CCN(C3CCCCC3)CC2)ncc1C(=O)NCc1ccccc1F` showed an RP-LC retention time of 629 s.

`Cc1cccc(-c2nnc(-c3cccc(S(=O)(=O)N4CCOCC4)c3)o2)c1` gave an RP-LC retention time of 885 s.

`CCCn1c(=O)sc2cc(S(=O)(=O)N3CCC(C(=O)Nc4ccc(F)cc4)CC3)ccc21` showed an RP-LC retention time of 979 s.

In the case of `COC(=O)c1ccc2c(=O)n(-c3ccc(C)c(F)c3)c(N3CCCC3)nc2c1`, the RP-LC retention time is reported as 1020 s.

For `O=C(NCC1CCS(=O)(=O)C1)c1cc(-c2ccccc2)on1` (centres undefined), the RP-LC retention time was 1010 s.

`Cc1cc(NC(=O)N(C)CC2CCOC2)ccc1Br` (centres undefined) showed an RP-LC retention time of 798 s.

In the case of `Cc1ccc(CNC(=O)C2=CCN(Cc3ccccc3)CC2)o1`, the RP-LC retention time is reported as 601 s.

Work on `Cc1nc2cc(-c3noc(Cc4c(Cl)cccc4Cl)n3)ccc2o1` yielded an RP-LC retention time of 1130 s.

With `COC[C@@H]1CN(S(=O)(=O)Cc2ccccc2)C[C@H]1c1nc(C)no1` the RP-LC retention time was 836 s.

For `CCOC(=O)C1CCN(c2cc3c(cc2NC(=O)C(C)(C)C)n(C)c(=O)c(=O)n3C)CC1`, the RP-LC retention time was 844 s.

Molecule `O=C(N[C@H]1C[C@@H]2C[C@H]1N(S(=O)(=O)c1ccc3c(c1)CCC3)C2)c1cccs1` has an RP-LC retention time of 943 s.

Molecule `O=C(NCCCN1CCCC1=O)C1CCN(c2cncnc2N2CCOCC2)CC1` has an RP-LC retention time of 535 s.

`CCOC(=O)c1ccc(NC(=O)Cn2c(C)nc3c(sc4nc(-c5ccccc5)ccc43)c2=O)cc1` gave an RP-LC retention time of 1100 s.

Molecule `CC(C)CN1C(=O)c2cccn2CC1C(=O)NCCN1CCCC1` (centres undefined) has an RP-LC retention time of 572 s.

In the case of `c1ccc(-c2n[nH]c(C3CCCCN3)n2)cc1` (centres undefined), the RP-LC retention time is reported as 574 s.

With `Cc1cc(C)c(S(=O)(=O)N2CCN(C(=O)c3ccc4c(c3)OCO4)CC2)c(C)c1` the RP-LC retention time was 912 s.

`O=C(Nc1ccc(F)cc1)Nc1cccn2ncnc12` gave an RP-LC retention time of 763 s.

Molecule `O=C(COc1ccc(Cl)cc1)N1CCN(c2cc(-c3ccccc3)[nH]n2)CC1` has an RP-LC retention time of 814 s.

`COc1ccc(NC(=O)c2nnn(-c3ccc(C)c(F)c3)c2C)cc1Cl` gave an RP-LC retention time of 1040 s.

Molecule `COc1cccc(-c2cc3c(=O)n(Cc4nc(-c5ccc(F)c(Br)c5)no4)ccn3n2)c1` has an RP-LC retention time of 1090 s.

`Cc1ccc(-c2nc3nc(C)cc(C)n3c2Nc2ccc(Cl)cc2)cc1` gave an RP-LC retention time of 786 s.

`CCC(C)NC(=O)C1CCN(C(=O)c2cc3ccsc3n2Cc2cccc(OC)c2)CC1` (centres undefined) gave an RP-LC retention time of 633 s.

For `Cc1cc(OCC(=O)Nc2ccc(F)cc2Cl)nc(N2CCN(c3ccccc3)CC2)n1`, the RP-LC retention time was 976 s.

In the case of `Cc1ccc(S(=O)(=O)N2CCCC(c3nnc(COc4ccccc4)o3)C2)c(C)c1` (centres undefined), the RP-LC retention time is reported as 984 s.

With `CCc1ccc(NC(=O)N(CC)c2nc(-c3ccc(C4CCCCC4)cc3)cs2)cc1` the RP-LC retention time was 641 s.

For `Cc1ccc(NC(=O)Nc2ccc3nc(N4CCN(C)CC4)cc(C)c3c2)cc1Cl`, the RP-LC retention time was 640 s.

With `CC1CCN(C(=O)c2cn(-c3cc(N4CCSCC4)ncn3)cn2)CC1` the RP-LC retention time was 858 s.

In the case of `CCc1ccc(C(C)NC(=O)c2ccc3[nH]cc(C(=O)C(=O)N4CCCCCC4)c3c2)cc1` (centres undefined), the RP-LC retention time is reported as 936 s.

Work on `CCOC(=O)c1c(C)c(C(=O)C(C)N(CC)C(=O)c2ccc(Cl)cc2)c(C)n1C` (centres undefined) yielded an RP-LC retention time of 876 s.

Molecule `CCn1nc(C)c(CCNC(=O)C2CCCN(c3nn4c(=O)c5c(nc4s3)CCCC5)C2)c1C` (centres undefined) has an RP-LC retention time of 634 s.

Work on `O=C(CCn1cnc2cc(S(=O)(=O)N3CCCC3)ccc21)N1CCN(c2ccccn2)CC1` yielded an RP-LC retention time of 576 s.

`Cn1cccc1CN1CCCC(COc2ccccc2C(=O)N2CCCC2)C1` (centres undefined) gave an RP-LC retention time of 644 s.

In the case of `Cc1cc(C)n(-c2ccnc(N3CCC(C(=O)NC4CCCC4)CC3)n2)n1`, the RP-LC retention time is reported as 786 s.

`O=C(NCC1CC1)C1(CCO)CCN(Cc2ccccc2)C1` (centres undefined) gave an RP-LC retention time of 581 s.

Work on `Cc1onc(-c2ccccc2Cl)c1C(=O)Nc1cc(C(=O)N2CCCC2)cn(C)c1=O` yielded an RP-LC retention time of 699 s.

`CCc1cc(=O)n(CC(=O)Nc2cccc(Cl)c2C)c(N2CCOCC2)n1` gave an RP-LC retention time of 771 s.

Molecule `CC(=O)Nc1ccc(-n2cnc(C(=O)N3CCN(c4cc(C)ccc4C)CC3)c2)nc1` has an RP-LC retention time of 790 s.

Work on `COc1cc2c(cc1O)CCC1C2CC[C@@]2(C)C1CC[C@@H]2O` (some centres undefined) yielded an RP-LC retention time of 836 s.

Work on `O=C(Nc1cccc(Cl)c1)N1CCN(CCn2c(-c3ccncc3)nc3cccnc32)CC1` yielded an RP-LC retention time of 623 s.

Molecule `COc1cccc(CC(=O)N2CCC3(CC2)N=C(c2ccccc2)NO3)c1` has an RP-LC retention time of 802 s.

In the case of `Cc1ccc(-n2ccc(=O)c(-c3nc(-c4ccccc4)no3)n2)cc1`, the RP-LC retention time is reported as 888 s.

In the case of `COc1ccc(-c2noc(CC3CCN(C(=O)c4cncc(Br)c4)CC3)n2)cc1`, the RP-LC retention time is reported as 909 s.

In the case of `CNC(=O)c1cc2cc(Br)ccc2[nH]1`, the RP-LC retention time is reported as 771 s.

`Cc1ccc(-c2nnc(Cc3nc(-c4ccccc4Cl)no3)o2)cc1F` showed an RP-LC retention time of 1110 s.

`Cc1nc([C@@H]2CN(C(=O)c3sc(C)nc3C)C[C@H]2C(N)=O)n[nH]1` gave an RP-LC retention time of 550 s.

Work on `O=C(NC1CC1)C1CCCN(C(=O)c2cc(-c3ccccn3)n[nH]2)C1` (centres undefined) yielded an RP-LC retention time of 577 s.

`O=C(Cn1nc2c3ccccc3ncn2c1=O)NCCc1ccc(Cl)cc1` showed an RP-LC retention time of 707 s.

Molecule `COc1ccc(C)cc1NS(=O)(=O)c1cc(-c2c(C)noc2NC(C)=O)ccc1C` has an RP-LC retention time of 804 s.

Work on `COc1ccc(CN2C[C@@H]3C(=O)N(C)C(=O)[C@@H]3C2)c(OC)c1` yielded an RP-LC retention time of 587 s.

`CNC(=O)C1CN(S(=O)(=O)c2ccccc2)CC12CCCCC2` (centres undefined) showed an RP-LC retention time of 776 s.

For `Cc1nnc2c(=O)n(CC(=O)NCc3cccc(Cl)c3)c3cccnc3n12`, the RP-LC retention time was 700 s.

`CCCNC(=O)c1ccc(-c2ccc(N3CCSCC3)nc2)cc1` showed an RP-LC retention time of 666 s.
